Test [1] concerns Mycobacterium tuberculosis. Kind of test: Antitubercular activity against Mycobacterium tuberculosis H37Rv by microplate Alamar blue assay. Type of test: functional.
The test system of test [2] is Mycobacterium tuberculosis. Put plainly: Antitubercular activity against Mycobacterium tuberculosis H37Rv by low-oxygen-recovery assay. The format is functional.
The test system of test [3] is Plasmodium falciparum. Put plainly: Antimicrobial activity against chloroquine-sensitive Plasmodium falciparum D10. The format is functional, organism-based.
For test [4], the target named is T1, Falcipain 2 (Plasmodium falciparum, UniProt Q9N6S8).
T1 sequence (Q9N6S8 whole entry): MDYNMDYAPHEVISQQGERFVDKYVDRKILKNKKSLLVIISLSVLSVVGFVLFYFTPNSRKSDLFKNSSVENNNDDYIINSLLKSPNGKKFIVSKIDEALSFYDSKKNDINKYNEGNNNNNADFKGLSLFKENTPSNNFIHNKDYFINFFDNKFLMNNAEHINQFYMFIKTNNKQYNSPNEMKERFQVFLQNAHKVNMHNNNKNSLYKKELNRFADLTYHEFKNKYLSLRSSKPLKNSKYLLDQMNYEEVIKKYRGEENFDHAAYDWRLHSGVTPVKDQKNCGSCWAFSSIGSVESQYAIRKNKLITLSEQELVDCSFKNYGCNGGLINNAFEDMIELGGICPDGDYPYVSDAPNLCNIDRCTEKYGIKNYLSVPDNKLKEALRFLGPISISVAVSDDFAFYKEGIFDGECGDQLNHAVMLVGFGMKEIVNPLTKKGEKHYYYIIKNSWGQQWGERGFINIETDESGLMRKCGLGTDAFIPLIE
Kind of test: Inhibition of Plasmodium falciparum falcipain-2.

In test [5] the test system is Plasmodium falciparum. Kind of test: Antimicrobial activity against chloroquine-resistant Plasmodium falciparum W2. Type of test: functional, organism-based.

Converted amounts (≈) assume the structure as drawn. A value given as a limit tells only on which side of the number the result lay.

As usually defined, the MIC is the least concentration at which growth counts as inhibited. A lower MIC goes with greater potency. A word on the IC50: it is the point on the concentration scale where inhibition reaches its midpoint. Lower therefore signals greater potency.

On to `COc1c(N2C[C@@H]3CCCN[C@@H]3C2)c(F)cc2c(=O)c(C(=O)O)cn(C3CC3)c12` [MOXIFLOXACIN], for which the MIC in test [1] was found to be 0.29 µM (≈ 0.116 µg/mL); in test [2], 31.1 µM (≈ 12.5 µg/mL).
In test [1], `C#CCOc1ccc(/C=C/C(=O)c2ccc(OC)c(OC)c2OC)cc1` yielded an MIC greater than 128 µM. Also, the IC50 in test [3] is 13.3 µM; in test [4] it was greater than 100 µM; in test [5], greater than 20 µM.
In the case of `C#CCOc1ccccc1/C=C/C(=O)c1ccc(OC)c(OC)c1OC`, the results for the minimal inhibitory concentration (MIC) in test [1] and in test [2] were 61.9 µM (≈ 21.8 µg/mL) and 28.6 µM (≈ 10.1 µg/mL), respectively. Further, the IC50 in test [3] is 50.6 µM; in test [4], greater than 100 µM; in test [5], greater than 20 µM.
In turn, `C#CCOc1cccc(C(=O)/C=C/c2ccc(OC)cc2OC)c1` yielded an MIC in test [1] greater than 128 µM. Moreover, the results for the IC50 in test [3], in test [4] and in test [5] were greater than 100 µM, greater than 100 µM and greater than 20 µM, respectively.
In the case of `C#CCOc1ccccc1C(=O)/C=C/c1ccc(OC)cc1OC`, the MIC in test [1] was 53.7 µM (≈ 17.3 µg/mL); in test [2], 62.8 µM (≈ 20.2 µg/mL). Further, the concentration for half-maximal inhibition (IC50) was 18.9 µM in test [3], greater than 100 µM in test [4] and greater than 20 µM in test [5].
In test [1], `C#CCOc1ccc(C(=O)/C=C/c2ccc(OC)c(OC)c2OC)cc1` registered a minimum inhibitory concentration (MIC) greater than 128 µM. The IC50 was 4.43 µM in test [3], greater than 100 µM in test [4] and greater than 20 µM in test [5].
As for `NNC(=O)c1ccncc1` [ISONIAZID], the minimal inhibitory concentration (MIC) in test [1] is 0.37 µM (≈ 0.0507 µg/mL); in test [2], greater than 128 µM.
`C#CCOc1ccc(/C=C/C(=O)c2ccc(OC)cc2)cc1OC`: the minimal inhibitory concentration (MIC) in test [1] was greater than 128 µM. For the same molecule, the IC50 in test [3] amounted to 9.7 µM; in test [5], 8.4 µM.
As for `C#CCOc1ccccc1/C=C/C(=O)c1ccc(OC)cc1OC`, the minimum inhibitory concentration (MIC) in test [1] came to 59.1 µM (≈ 19.1 µg/mL); in test [2] it was 14.9 µM (≈ 4.8 µg/mL). Besides, the IC50 in test [3] was 8 µM; in test [4] it was greater than 100 µM; in test [5], greater than 20 µM.
As to `C#CCOc1cccc(/C=C/C(=O)c2ccc(OC)c(OC)c2OC)c1`, the minimum inhibitory concentration (MIC) in test [1] came to 54 µM (≈ 19 µg/mL); in test [2], 13.1 µM (≈ 4.62 µg/mL). The IC50 in test [3] was greater than 100 µM; in test [4], greater than 19 µM; in test [5], greater than 20 µM.
Regarding `C#CCOc1ccccc1C(=O)/C=C/c1ccc(OC)c(OC)c1OC`, the figures for the MIC in test [1] and in test [2] were 98.7 µM (≈ 34.8 µg/mL) and 46.1 µM (≈ 16.2 µg/mL), respectively. Further, the IC50 in test [3] was greater than 100 µM; in test [4], greater than 100 µM; in test [5], greater than 20 µM.
`C#CCOc1cccc(/C=C/C(=O)c2ccc(OC)cc2)c1`: the minimal inhibitory concentration (MIC) amounted to 40 µM (≈ 11.7 µg/mL) in test [1] and 31.7 µM (≈ 9.27 µg/mL) in test [2]. Besides, the half-inhibitory concentration (IC50) in test [3] is 11.6 µM; in test [4], greater than 100 µM; in test [5], greater than 20 µM.
Regarding `C#CCOc1ccccc1C(=O)/C=C/c1ccc(OC)cc1`, the minimum inhibitory concentration (MIC) in test [1] is 31.1 µM (≈ 9.09 µg/mL); in test [2] it was 56.7 µM (≈ 16.6 µg/mL). The values for the 50% inhibitory concentration (IC50) in test [3], in test [4] and in test [5] were greater than 100 µM, greater than 100 µM and greater than 20 µM, respectively.
In the case of `C#CCOc1ccc(/C=C/C(=O)c2ccc(OC)cc2OC)cc1`, in test [1], the MIC was greater than 128 µM. Also, the IC50 in test [3] is 54.8 µM; in test [4], greater than 100 µM; in test [5] it was greater than 20 µM.
As for `C#CCOc1ccc(C(=O)/C=C/c2ccc(OC)cc2OC)cc1OC`, in test [1], the minimal inhibitory concentration (MIC) was greater than 128 µM. In addition, the results for the IC50 in test [3] and in test [5] were 20 µM and 9.7 µM, respectively.
The corresponding values for `C#CCOc1ccc(C(=O)/C=C/c2ccc(OC)c(OC)c2OC)cc1OC` are greater than 128 µM, 4.1 µM and 6.7 µM.
In the case of `C#CCOc1cccc(C(=O)/C=C/c2ccc(OC)c(OC)c2OC)c1`, the results for the MIC in test [1] and in test [2] were 58.7 µM (≈ 20.7 µg/mL) and 29.7 µM (≈ 10.5 µg/mL), respectively. Besides, the half-maximal inhibitory concentration (IC50) in test [3] was 33 µM; in test [4], greater than 100 µM; in test [5], greater than 20 µM.
As to `C#CCOc1cccc(/C=C/C(=O)c2ccc(OC)cc2OC)c1`, the minimum inhibitory concentration (MIC) worked out at 54.9 µM (≈ 17.7 µg/mL) in test [1] and 26.1 µM (≈ 8.41 µg/mL) in test [2]. Also, the IC50 was 7.57 µM in test [3], greater than 100 µM in test [4] and greater than 20 µM in test [5].
As to `CC(C)C[C@H](NC(=O)[C@H]1O[C@@H]1C(=O)O)C(=O)NCCCCN=C(N)N` [E-64], the 50% inhibitory concentration (IC50) in test [4] is 0.047 µM.
With `C#CCOc1cccc(C(=O)/C=C/c2ccc(OC)cc2)c1`, the MIC is 51.2 µM (≈ 15 µg/mL) in test [1] and greater than 128 µM in test [2]. In addition, the half-maximal inhibitory concentration (IC50) is greater than 100 µM in test [3], greater than 100 µM in test [4] and greater than 20 µM in test [5].
Consider `C#CCOc1ccc(C(=O)/C=C/c2ccc(OC)cc2)cc1`, for which the MIC in test [1] is greater than 128 µM. The 50% inhibitory concentration (IC50) is 16.5 µM in test [3], greater than 100 µM in test [4] and greater than 20 µM in test [5].
With `C#CCOc1ccc(/C=C/C(=O)c2ccc(OC)c(OC)c2OC)cc1OC`, in test [1], the lowest concentration to inhibit growth (MIC) was 109 µM (≈ 41.7 µg/mL). Besides, the IC50 in test [3] worked out at 7.7 µM; in test [5], 7 µM.
For the molecule `CO[C@H]1/C=C/O[C@@]2(C)Oc3c(C)c(O)c4c(O)c(c(/C=N/N5CCN(C)CC5)c(O)c4c3C2=O)NC(=O)/C(C)=C\C=C\[C@H](C)[C@H](O)[C@@H](C)[C@@H](O)[C@@H](C)[C@H](OC(C)=O)[C@@H]1C` [RIFAMPIN], the values for the MIC in test [1] and in test [2] were 0.05 µM (≈ 0.0411 µg/mL) and 2.4 µM (≈ 1.98 µg/mL), respectively.
For the molecule `C#CCOc1ccccc1/C=C/C(=O)c1ccc(OC)cc1`, the MIC in test [1] stood at 47.5 µM (≈ 13.9 µg/mL); in test [2] it was 50.7 µM (≈ 14.8 µg/mL). The IC50 in test [3] is greater than 100 µM; in test [4] it was greater than 100 µM; in test [5] it was greater than 20 µM.
With `O=[N+]([O-])c1cn2c(n1)OC[C@@H](OCc1ccc(OC(F)(F)F)cc1)C2` [PRETOMANID], the MIC in test [1] was determined as 0.16 µM (≈ 0.0575 µg/mL); in test [2] it was 3.3 µM (≈ 1.19 µg/mL).
For the molecule `C#CCOc1ccc(C(=O)/C=C/c2ccc(OC)cc2OC)cc1`, the values for the MIC in test [1] and in test [2] were 31 µM (≈ 9.99 µg/mL) and 108 µM (≈ 34.8 µg/mL), respectively. The IC50 in test [3] is greater than 100 µM; in test [4], greater than 100 µM; in test [5], greater than 20 µM.
On to `C#CCOc1ccc(/C=C/C(=O)c2ccc(OC)cc2OC)cc1OC`, for which the MIC in test [1] is greater than 128 µM. The IC50 in test [3] turned out to be 3.4 µM; in test [5] it was 3.8 µM.
Regarding `C#CCOc1ccc(/C=C/C(=O)c2ccc(OC)cc2)cc1`, in test [1], the MIC was greater than 128 µM. Besides, the IC50 in test [3] is greater than 100 µM; in test [4] it was greater than 100 µM; in test [5], greater than 20 µM.

Values taken from ChEMBL document CHEMBL1159089, “Synthesis, antimalarial and antitubercular activity of acetylenic chalcones” (Bioorg Med Chem Lett, 2010).
